We go through 13 compounds from article PMC3365592 (European Journal of Medicinal Chemistry, 2012).

Molecules are shown by their SMILES. Where two headings read alike, the source gives them in different places.

The target of experiment [1] is T1, 5-HT1A receptors (Rattus norvegicus, UniProt P19327).
T1 sequence (P19327 1-422): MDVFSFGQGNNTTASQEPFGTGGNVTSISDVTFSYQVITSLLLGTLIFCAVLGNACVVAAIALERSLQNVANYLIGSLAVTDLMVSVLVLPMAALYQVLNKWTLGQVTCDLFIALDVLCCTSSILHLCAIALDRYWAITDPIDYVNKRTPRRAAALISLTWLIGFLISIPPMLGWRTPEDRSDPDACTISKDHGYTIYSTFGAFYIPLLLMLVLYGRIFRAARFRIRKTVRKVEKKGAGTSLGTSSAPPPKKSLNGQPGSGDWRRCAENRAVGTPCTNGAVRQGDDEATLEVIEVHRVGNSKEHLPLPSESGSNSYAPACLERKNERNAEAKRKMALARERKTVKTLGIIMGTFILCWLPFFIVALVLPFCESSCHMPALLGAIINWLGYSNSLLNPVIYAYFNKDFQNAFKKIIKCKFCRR
Put plainly: 5-HT1A receptor binding experiments.

Experiment [2] concerns the target T1, 5-HT1A receptors. Conditions: read-out: 5-HT1A Ki ± SEM; cited from earlier work.

As usually defined, the Ki is the dissociation constant of the complex between target and ligand, obtained from inhibition or displacement.

`O=C1CCCC(=O)N1CCCCN1CCN(c2ccc3cc([N+](=O)[O-])ccc3n2)CC1` [Compound 4, 1-{4-[4-(6-Nitro-quinolin-2-yl)-piperazin-1-yl]-butyl}-piperidine-2,6-dione] displayed an inhibition constant (Ki) in experiment [1] of 10600 ± 3500 nM.

For `CC1(C)CC(=O)N(CCCCN2CCN(c3ccc4ccccc4n3)CC2)C(=O)C1` [Compound 19], the Ki in experiment [2] was 11 ± 2 nM.

With `CC1CN(c2ccc3ccccc3n2)CCN1CCCCN1C(=O)CC2(CCCC2)CC1=O` (stereo not shown) [Compound 16], the Ki in experiment [2] is 24 ± 3 nM.

`CC1CN(c2ccc3ccccc3n2)CCN1CCCN1C(=O)c2ccccc2C1=O` (stereo not shown) [Compound 14]: the inhibitory constant (Ki) in experiment [2] is 275 nM.

For the compound `CC1CN(c2ccc3ccccc3n2)CCN1CCCCN1C(=O)CCCC1=O` (stereo not shown) [Compound 15], in experiment [2], the Ki was 37 ± 6 nM.

For `O=C1c2ccccc2C(=O)N1CCCCN1CCN(c2ccc3ccccc3n2)CC1` [Compound 13], in experiment [2], the Ki is 39 nM.

With `CC1(C)CC(=O)N(CCCCN2CCN(c3ccc4cc([N+](=O)[O-])ccc4n3)CC2)C(=O)C1` [Compound 8, 4,4-Dimethyl-1-{4-[4-(6-nitro-quinolin-2-yl)-piperazin-1-yl]-butyl}-piperidine-2,6-dione], affinity in experiment [1] was put at a Ki of 2100 ± 400 nM.

Consider `CC1CN(c2ccc3ccccc3n2)CCN1CCCCN1C(=O)CC(C)(C)CC1=O` (stereo not shown) [Compound 18], for which, in experiment [2], the inhibition constant Ki is 15 ± 3 nM.

In the case of `O=C1CC2(CCCC2)CC(=O)N1CCCCN1CCN(c2ccc3cc([N+](=O)[O-])ccc3n2)CC1` [Compound 6, 8-{4-[4-(6-Nitro-quinolin-2-yl)-piperazin-1-yl]-butyl}-8-aza-spiro[4.5]decane-7,9-dione], in experiment [1], the affinity, expressed as Ki, was 1100 ± 400 nM.

Compound `CC1CN(c2ccc3cc([N+](=O)[O-])ccc3n2)CCN1CCCCN1C(=O)CCCC1=O` (stereo not shown) [Compound 3, 1-{4-[2-Methyl-4-(6-nitroquinolin-2-yl)piperazin-1-ylo]butyl}piperidine-2,6-dione] yielded a Ki in experiment [1] of 711 ± 21 nM.

Compound `O=C1c2ccccc2C(=O)N1CCCCN1CCN(c2ccc3cc([N+](=O)[O-])ccc3n2)CC1` [Compound 9, 2-{4-[4-(6-Nitro-quinolin-2-yl)-piperazin-1-yl]-butyl}-isoindole-1,3-dione] registered a Ki in experiment [1] of 59000 ± 23100 nM.

As for `CC1(C)CC(=O)N(CCCCN2CCN(c3ccc4c(Cl)cccc4n3)CC2)C(=O)C1` [Compound 10, 1-{4-[4-(5-Chloroquinolin-2-yl)piperazin-1-yl]butyl}-4,4-di-methylopiperydine-2,6-dione], the Ki in experiment [1] came out at 1400 ± 100 nM.

On to `CC1CN(c2ccc3ccccc3n2)CCN1CCCCN1C(=O)c2ccccc2C1=O` (stereo not shown) [Compound 12], for which, in experiment [2], the inhibition constant (Ki) is 13 nM.
